Source: ChEMBL document CHEMBL3046877, “Synthesis and bioevaluation of novel arylnaphthalene lignans as anticancer agents” (Med Chem Res, 2013)
The source made the active and inactive calls. The calls are words filed in the database; no cut-off is given here.

Legend:
SW480 = assay: Anticancer activity against Homo sapiens (human) SW480 cells assessed as decrease in cell growth after 3 days by MTT assay; type: functional, cell-based; settings: SW480, 72 h
A549 = assay: Anticancer activity against Homo sapiens (human) A549 cells assessed as decrease in cell growth after 3 days by MTT assay; type: functional, cell-based; settings: A549, 72 h
HCT-116 = assay: Anticancer activity against Homo sapiens (human) HCT116 cells assessed as decrease in cell growth after 3 days by MTT assay; type: functional, cell-based; settings: HCT-116, 72 h
KB [1] = assay: Anticancer activity against Homo sapiens (human) KB cells assessed as decrease in cell growth after 3 days by MTT assay; type: functional, cell-based; settings: 72 h
HEK293 = assay: Cytotoxicity against Homo sapiens (human) HEK293 cells assessed as decrease in cell growth after 3 days by MTT assay; type: cell-based; settings: HEK293, 72 h
KB [2] = assay: Induction of apoptosis in Homo sapiens (human) KB cells assessed as increase in Bax expression at 5 to 15 uM after 72 hr by western blot analysis; type: functional, cell-based
KB [3] = assay: Induction of apoptosis in Homo sapiens (human) KB cells assessed as plasma membrane blebbing at 5 to 10 uM after 72 hr by AO/EB double staining based fluorescence microscopic analysis; type: functional, cell-based
KB [4] = assay: Induction of apoptosis in Homo sapiens (human) KB cells assessed as decrease in Bcl-2 expression at 5 to 15 uM after 72 hr by western blot analysis; type: functional, cell-based

IC50 (SW480) [µM] | IC50 (A549) [µM] | IC50 (HCT-116) [µM] | IC50 (KB [1]) [µM] | Structure (SMILES) | IC50 (HEK293) [µM] | Activity (KB [2]) | Activity (KB [3]) | inhibition (KB [4])
22.8 | > 100 | > 100 | > 100 | COc1cc2c(O)c3c(c(-c4ccccc4OC)c2cc1OC)C(=O)OC3 | > 100 | – | – | –
> 100 | 97.2 | > 100 | 23.2 | COc1cc2c(O)c3c(c(-c4cc(OC)c(OC)c(OC)c4)c2cc1OC)C(=O)OC3 | > 100 | – | – | –
> 100 | > 100 | > 100 | > 100 | COc1ccc(-c2c3c(c(O)c4cc(OC)c(OC)cc24)COC3=O)cc1OC | > 100 | – | – | –
5.6 | > 100 | 29.3 | 5.1 | COc1cc(OC)cc(-c2c3c(c(O)c4cc(OC)c(OC)cc24)COC3=O)c1 | > 100 | Active | Active | Active
> 100 | > 100 | > 100 | 20.6 | COc1ccc(-c2c3c(c(O)c4cc(OC)c(OC)cc24)COC3=O)cc1 | > 100 | – | – | –
> 100 | > 100 | > 100 | > 100 | COc1ccc(OC)c(-c2c3c(c(O)c4cc(OC)c(OC)cc24)COC3=O)c1 | > 100 | – | – | –
– | – | 48.5 | – | COc1cc2c(O)c3c(c(-c4ccc5c(c4)OCO5)c2cc1OC)C(=O)OC3 [DIPHYLLIN] | > 100 | – | – | –
> 100 | > 100 | > 100 | > 100 | COc1cc2c(O)c3c(c(-c4ccccc4)c2cc1OC)C(=O)OC3 | > 100 | – | – | –
> 100 | > 100 | 88.5 | > 100 | COc1cccc(-c2c3c(c(O)c4cc(OC)c(OC)cc24)COC3=O)c1 | > 100 | – | – | –
> 100 | > 100 | > 100 | 15.1 | COc1cc2c(O)c3c(c(-c4ccc(C)cc4)c2cc1OC)C(=O)OC3 | > 100 | – | – | –
– | – | – | – | COc1cc([C@@H]2c3cc4c(cc3[C@@H](O[C@@H]3O[C@@H]5CO[C@@H](C)O[C@H]5[C@H](O)[C@H]3O)[C@H]3COC(=O)[C@H]23)OCO4)cc(OC)c1O [ETOPOSIDE] | > 100 | – | – | –
